Tested on: Staphylococcus epidermidis biofilm
Assay: In-vitro biofilm microtitre plate assay, regrowth of biofilm after 1 minute treatment (growth index, GRI)
Type: cell-based
Settings: conclusion in words from normalised GRI of soap + clay + antibacterial combinations
Protocol: A biofilm based microtitre plate assay was used to determine the antibacterial efficacy of the test suspensions. The efficacy is measured in terms of an index called the growth index [GRI].
An axillary isolate of Staphylococcus epidermidis was used for all the studies. The isolate was maintained on sterile CYAgar [Blood agar base 2—42 gm.1^−1, dextrose—2 gm.1^−1, yeast extract—3 gm.1^−1, polysorbate 80—5 gm.1^−1]. 24 hrs prior to the study, the isolate was subcultured onto fresh sterile CYAgar and incubated at 37° C. […]
Standardization of biofilm in terms of its attachment to polystyrene wells was initially carried out by crystal violet staining and quantification of cell numbers. […]
A kinetic assay was performed to measure the regrowth of the biofilm in an iEMS reader using the Thermo Labsystems Ascent Software™. Readings were recorded at 37° C. for 24 hrs on an hourly basis at 620 nm.
Growth of bacteria is represented by 4 phases—lag phase, exponential phase, stationary phase and death phase. […] The cumulative effect of the antibacterial over the placebo effect can be determined by the product of the increase in the time taken to reach the mid log phase from the control, and the decrease in the cell density after 24 hrs of growth. […]

| Structure (SMILES) | synergistic benefit in antibacterial efficacy |
| --- | --- |
| Oc1cc(Cl)ccc1Oc1ccc(Cl)cc1Cl [TCN, 4,2′,4′-trichloro-2-hydroxy diphenyl ether] | do not provide similar synergistic benefit |
| O=C(Nc1ccc(Cl)cc1)Nc1ccc(Cl)c(Cl)c1 [TCC, 3,4,4′ trichlorocarbanilide] | do not provide similar synergistic benefit |

— patent US20060111259A1, “Detergent composition” (Conopco Inc, d/b/a UNILEVER, priority 2004, published 2006)
